Laboratory results taken from patent publication US10821115B2, “Compounds that inhibit Mcl-1 protein” (priority 2017, dated 2020).
Read-outs that look alike come from different tables or passages of the source.

Key:
[1] = test system: human multiple myeloma cell line, OPM-2; test: Cell viability assay (OPM-2 10 FBS), CellTiter-Glo; type: cell-based
Summary of the method: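 Cells were seeded at 3000 cells/well in RPMI 1640 with 10% FBS and exposed to serially diluted compounds for 16 h at 37 °C, 5% CO2.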

[2] = target: recombinant human Mcl-1 (residues 171-327) / Bim interaction (Homo sapiens (Human), UniProt Q07820); test: biochemical; type: binding; conditions: read-out: Mcl-1 HTRF IC50
[3] = Homo sapiens, OPM-2, 16 h, read-out: OPM-2 10% FBS IC50 IP, OPM-2 cells, 10% FBS, 16 h incubation
[4] = 0.1 nM Mcl-1(171-327), 0.05 nM biotin-Bim (51-76)
[5] = Homo sapiens, OPM-2, 16 h, read-out: OPM-2 10% FBS IC50 IP, OPM-2 cells, 10% FBS, 16 h, CellTiter-Glo
[6] = TR-FRET, Mcl-1(171-327) / biotin-Bim (51-76)
[7] = read-out: OPM-2 10% FBS IC50 IP, OPM-2 cells, 10% FBS, 16 h incubation
[8] = read-out: OPM-2 10% FBS IC50 IP, OPM-2 cells, 10% FBS, 16 h, CellTiter-Glo

Chain of recombinant human Mcl-1 (residues 171-327) / Bim interaction (Q07820 171-327): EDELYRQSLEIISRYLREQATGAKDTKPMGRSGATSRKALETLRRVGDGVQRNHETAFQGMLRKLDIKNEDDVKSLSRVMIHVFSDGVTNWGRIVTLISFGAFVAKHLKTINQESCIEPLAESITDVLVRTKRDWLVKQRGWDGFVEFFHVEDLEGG

Work on C=CCO[C@]1(CN2CCN3CCOC[C@@H]3C2)/C=C/C[C@H](C)[C@@H](C)S(=O)(=O)NC(=O)c2ccc3c(c2)N(C[C@@H]2CC[C@H]21)C[C@@]1(CCCc2cc(Cl)ccc21)CO3 [Example 46, (1S,3′R,6′R,7′R,8′E,11′S,12′R)-6-chloro-7′-((9aS)-hexahydropyrazino[2,1-c][1,4]oxazin-8(1H)-ylmethyl)-11′,12′-dimethyl-7′-(2-propen-1-yloxy)-3,4-dihydro-2H,15′H-spiro[naphthalene-1,22′-[20]oxa[13]thia[1,14]diazatetracyclo [14.7.2.0~3,6~.0~19,24~]pentacosa[8,16,18,24]tetraen]-15′-one 13′,13′-dioxide] yielded an IC50 [1, 3] of 167 nM and an IC50 [2, 4] of 0.107 nM.
CO[C@@]1(CN2CCC23COC3)/C=C/C[C@H](C)[C@@H](C)S(=O)(=O)NC(=O)c2ccc3c(c2)N(C[C@@H]2CC[C@H]21)C[C@@]1(CCCc2cc(Cl)ccc21)CO3 [Example 208, (1S,3′R,6′R,7′S,8′E,11′S,12′R)-6-chloro-7′-methoxy-11′,12′-dimethyl-7′-(6-oxa-1-azaspiro[3.3]hept-1-ylmethyl)-3,4-dihydro-2H,15′H-spiro[naphthalene-1,22′-[20]oxa[13]thia[1,14]diazatetracyclo [14.7.2.0~3,6~.0~19,24~]pentacosa[8,16,18,24]tetraen]-15′-one 13′,13′-dioxide] gave an IC50 [1, 3] of 368 nM and an IC50 [2, 4] of 0.099 nM.
Work on CCC[C@]1(OC)/C=C/C[C@H](C)[C@@H](C)S(=O)(=O)NC(=O)c2ccc3c(c2)N(C[C@@H]2CC[C@H]21)C[C@@]1(CCCc2cc(Cl)ccc21)CO3 [Example 100236, (1S,3′R,6′R,7′S,8′E,11′S,12′R)-6-chloro-7′-methoxy-11′,12′-dimethyl-7′-propyl-3,4-dihydro-2H,15′H-spiro[naphthalene-1,22′-[20]oxa[13]thia[1,14]diazatetracyclo [14.7.2.0~3,6~.0~19,24~]pentacosa[8,16,18,24]tetraen]-15′-one 13′,13′-dioxide] yielded an IC50 [1, 5] of 933 nM and an IC50 [2, 6] of 1.1 nM.
In the case of CO[C@]1(CN2CCN3CCS(=O)(=O)C[C@@H]3C2)/C=C/C[C@H](C)[C@@H](C)S(=O)(=O)NC(=O)c2ccc3c(c2)N(C[C@@H]2CC[C@H]21)C[C@@]1(CCCc2cc(Cl)ccc21)CO3 (single isomer, unassigned) [Example 220], the IC50 [1, 7] is reported as 42 nM and the IC50 [2, 4] is reported as 0.052 nM.
CO[C@@]1(CN2CCN3CCC(F)(F)C[C@@H]3C2)/C=C/C[C@H](C)[C@@H](C)S(=O)(=O)NC(=O)c2ccc3c(c2)N(C[C@@H]2CC[C@H]21)C[C@@]1(CCCc2cc(Cl)ccc21)CO3 (single isomer, unassigned) [Example 288] gave an IC50 [1, 7] of 652 nM and an IC50 [2, 4] of 0.484 nM.
For C[C@@H]1[C@@H](C)CCC[C@@](O)(C#CCCN2CCOCC2)[C@@H]2CC[C@H]2CN2C[C@@]3(CCCc4cc(Cl)ccc43)COc3ccc(cc32)C(=O)NS1(=O)=O [Example 100372, (1S,3′R,6′R,7′S,11S,12R)-6-chloro-7′-hydroxy-11′,12′-dimethyl-7′-(4-(4-morpholinyl)-1-butyn-1-yl)-3,4-dihydro-2H,15′H-spiro[naphthalene-1,22′-[20]oxa[13]thia[1,14]diazatetracyclo [14.7.2.0~3,6~.0~19,24~]pentacosa[16,18,24]trien]-15′-one 13′,13′-dioxide], the IC50 [1, 8] was 833 nM and the IC50 [2, 6] was 0.165 nM.
For C[C@@H]1[C@@H](C)C/C=C/[C@](O)(c2ccncc2F)[C@@H]2CC[C@H]2CN2C[C@@]3(CCCc4cc(Cl)ccc43)COc3ccc(cc32)C(=O)NS1(=O)=O [Example 100368, (1S,3′R,6′R,7′R,8′E,11′S,12′R)-6-chloro-7′-(3-fluoro-4-pyridinyl)-7′-hydroxy-11′,12′-dimethyl-3,4-dihydro-2H,15′H-spiro[naphthalene-1,22′-[20]oxa[13]thia[1,14]diazatetracyclo [14.7.2.0~3,6~.0~19,24~]pentacosa[8,16,18,24]tetraen]-15′-one 13′,13′-dioxide], the IC50 [1, 5] was 611 nM and the IC50 [2, 6] was 0.377 nM.
For C[C@@H]1[C@@H](C)CCC[C@](O)(CC[S@@+](C)[O-])[C@@H]2CC[C@H]2CN2C[C@@]3(CCCc4cc(Cl)ccc43)COc3ccc(cc32)C(=O)NS1(=O)=O [Example 100330, (1S,3′R,6′R,7′S,11′S,12′R)-6-chloro-7′-hydroxy-11′,12′-dimethyl-7′-(2-((R)-methylsulfinyl)ethyl)-3,4-dihydro-2H,15′H-spiro[naphthalene-1,22′-[20]oxa[13]thia[1,14]diazatetracyclo [14.7.2.0~3,6~.0~19,24~]pentacosa[16,18,24]trien]-15′-one 13′,13′-dioxide], the IC50 [1, 5] was 8260 nM and the IC50 [2, 6] was 0.083 nM.
For CC(=O)N[C@@]1(CO)CCC[C@H](C)[C@@H](C)S(=O)(=O)NC(=O)c2ccc3c(c2)N(C[C@@H]2CC[C@H]21)C[C@@]1(CCCc2cc(Cl)ccc21)CO3 [Example 100265, N-((1S,3′R,6′R,7′S,11′S,12′R)-6-chloro-7′-(hydroxymethyl)-11′,12′-dimethyl-13′,13′-dioxido-15′-oxo-3,4-dihydro-2H-spiro[naphthalene-1,22′-[20]oxa[13]thia[1,14]diazatetracyclo [14.7.2.0~3,6~.0~19,24~]pentacosa[16,18,24]trien]-7′-yl)acetamide], the IC50 [1, 5] was 441 nM and the IC50 [2, 6] was 0.439 nM.
COCC[C@@H]1[C@@H](C)C/C=C/[C@](CN2CCN(C(C)C)CC2)(OC)[C@@H]2CC[C@H]2CN2C[C@@]3(CCCc4cc(Cl)ccc43)COc3ccc(nc32)C(=O)NS1(=O)=O [Example 24, (1S,3′R,6′R,7′S,8′E,11′S,12′R)-6-chloro-7′-methoxy-12′-(2-methoxyethyl)-11′-methyl-7′-((4-(1-methylethyl)-1-piperazinyl)methyl)-3,4-dihydro-2H,15′H-spiro[naphthalene-1,22′-[20]oxa[13]thia[1,14,25]triazatetracyclo [14.7.2.0~3,6~.0~19,24~]pentacosa[8,16,18,24]tetraen]-15′-one 13′,13′-dioxide] was tested, and the IC50 [1, 3] was 35 nM and the IC50 [2, 4] was 0.086 nM.
In the case of C[C@@H]1[C@@H](C)C/C=C/[C@@](O)(C#CCN2CCCCC2)[C@@H]2CC[C@H]2CN2C[C@@]3(CCCc4cc(Cl)ccc43)COc3ccc(cc32)C(=O)NS1(=O)=O [Example 100424, (1S,3′R,6′R,7′S,8′E,11′S,12′R)-6-chloro-7′-hydroxy-11′,12′-dimethyl-7′-(3-(1-piperidinyl)-1-propyn-1-yl)-3,4-dihydro-2H,15′H-spiro[naphthalene-1,22′-[20]oxa[13]thia[1,14]diazatetracyclo [14.7.2.0~3,6~.0~19,24~]pentacosa[8,16,18,24]tetraen]-15′-one 13′,13′-dioxide], the IC50 [1, 8] is reported as 469 nM and the IC50 [2, 6] is reported as 0.249 nM.
Work on Cc1ccnc(C[C@]2(O)/C=C/C[C@H](C)[C@@H](C)S(=O)(=O)NC(=O)c3ccc4c(c3)N(C[C@@H]3CC[C@H]32)C[C@@]2(CCCc3cc(Cl)ccc32)CO4)c1 [Example 100533, (1S,3′R,6′R,7′S,8′E,11′S,12′R)-6-chloro-7′-hydroxy-11′,12′-dimethyl-7′-((4-methyl-2-pyridinyl)methyl)-3,4-dihydro-2H,15′H-spiro[naphthalene-1,22′-[20]oxa[13]thia[1,14]diazatetracyclo [14.7.2.0~3,6~.0~19,24~]pentacosa[8,16,18,24]tetraen]-15′-one 13′,13′-dioxide] yielded an IC50 [1, 5] of 3990 nM and an IC50 [2, 6] of 8.56 nM.
CO[C@@]1(CN2CCc3cncnc3C2)/C=C/C[C@H](C)[C@@H](C)S(=O)(=O)NC(=O)c2ccc3c(c2)N(C[C@@H]2CC[C@H]21)C[C@@]1(CCCc2cc(Cl)ccc21)CO3 [Example 211] was tested, and the IC50 [1, 3] was 156 nM and the IC50 [2, 4] was 0.147 nM.
C=C(C)[C@@H](O)C[C@]1(OC)/C=C/C[C@H](C)[C@@H](C)S(=O)(=O)NC(=O)c2ccc3c(c2)N(C[C@@H]2CC[C@H]21)C[C@@]1(CCCc2cc(Cl)ccc21)CO3 [Example 100470, (1S,3′R,6′R,7′S,8′E,11′S,12′R)-6-chloro-7′-((2S)-2-hydroxy-3-methyl-3-buten-1-yl)-7′-methoxy-11′,12′-dimethyl-3,4-dihydro-2H,15′H-spiro[naphthalene-1,22′-[20]oxa[13]thia[1,14]diazatetracyclo [14.7.2.0~3,6~.0~19,24~]pentacosa[8,16,18,24]tetraen]-15′-one 13′,13′-dioxide] showed an IC50 [1, 8] of 9650 nM and an IC50 [2] of 0.576 nM.
With C[C@@H]1[C@@H](C)CCC[C@](O)(Cc2ccccc2)[C@@H]2CC[C@H]2CN2C[C@@]3(CCCc4cc(Cl)ccc43)COc3ccc(cc32)C(=O)NS1(=O)=O (single isomer, unassigned) [Example 100319] the IC50 [1, 5] was 506 nM and the IC50 [2, 6] was 0.126 nM.
Work on COCCN(C)C1=NO[C@@]2(CCC[C@H](C)[C@@H](C)S(=O)(=O)NC(=O)c3ccc4c(c3)N(C[C@@H]3CC[C@H]32)C[C@@]2(CCCc3cc(Cl)ccc32)CO4)C1 [Example 100155, (1S,3′R,6′R,7′S,11′S,12′R)-6-chloro-3″- ((2-methoxyethyl)(methyl)amino)-11′,12′-dimethyl-3,4-dihydro-2H,4″H,15′H-dispiro[naphthalene-1,22′-[20]oxa[13]thia[1,14]diazatetracyclo [14.7.2.0~3,6~.0~19,24~]pentacosa[16,18,24]triene-7′,5″-[1,2]oxazol]-15′-one 13′,13′-dioxide] yielded an IC50 [1, 5] of 332 nM and an IC50 [2, 6] of 0.225 nM.
